Measured values as given in the supplement of paper PMC10307832.

Columns and labels:
Experiment in all cases: relative viability (nuclei count vs DMSO), 5 days (fraction); higher = more cells survive
[1] = compound: CS(=O)(=O)N1CCN(Cc2cc3nc(-c4cccc5[nH]ncc45)nc(N4CCOCC4)c3s2)CC1 [Pictilisib] + N=C(N)NC(=N)NCCc1ccccc1 [Phenformin] (partner 250 µM)
Outline: (§1)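 Relative viability equals treated-well nuclei counts divided by vehicle-well nuclei counts. Counts came from 4× images of lung cancer cell lines grown in 1536-well plates for 5 days after pin-tool dosing on the day after seeding. Dosing used one drug alone or a fixed anchor-drug dose plus five library-drug doses (not always all listed) in √10 steps, and values are medians of duplicate plates.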

[2] = compound: NC1(c2ccc(-c3nc4ccn5c(=O)[nH]nc5c4cc3-c3ccccc3)cc2)CCC1 [MK-2206] + C[C@]1(O)C[C@@H](c2nc(-c3ccc4ccc(-c5ccccc5)nc4c3)c3c(N)nccn32)C1 [Linsitinib] (partner 1 µM)
Outline: as §1

[3] = compound: NC1(c2ccc(-c3nc4ccn5c(=O)[nH]nc5c4cc3-c3ccccc3)cc2)CCC1 [MK-2206] + O=C(CCCCCCC(=O)Nc1ccccc1)NO [Vorinostat] (partner 1 µM)
Outline: as §1

[4] = compound: CS(=O)(=O)N1CCN(Cc2cc3nc(-c4cccc5[nH]ncc45)nc(N4CCOCC4)c3s2)CC1 [Pictilisib] + Cc1cc(Nc2cc(N3CCN(C)CC3)nc(Sc3ccc(NC(=O)C4CC4)cc3)n2)n[nH]1 [Tozasertib] (partner 0.1 µM)
Outline: as §1

[5] = compound: CS(=O)(=O)N1CCN(Cc2cc3nc(-c4cccc5[nH]ncc45)nc(N4CCOCC4)c3s2)CC1 [Pictilisib] + CC(C)C[C@H](NC(=O)[C@H](Cc1ccccc1)NC(=O)c1cnccn1)B(O)O [Bortezomib] (partner 0.002 µM)
Outline: as §1

Cell Line | relative viability ([1]; first compound 0.02 µM) | relative viability ([1]; first compound 0.06325 µM) | relative viability ([1]; first compound 0.6325 µM) | relative viability ([1]; first compound 2 µM) | relative viability ([2]; first compound 0.01 µM) | relative viability ([2]; first compound 0.03162 µM) | relative viability ([2]; first compound 0.3162 µM) | relative viability ([2]; first compound 1 µM) | relative viability ([3]; first compound 0.01 µM) | relative viability ([3]; first compound 0.03162 µM) | relative viability ([3]; first compound 0.3162 µM) | relative viability ([3]; first compound 1 µM) | relative viability ([4]; first compound 0.02 µM) | relative viability ([4]; first compound 0.06325 µM) | relative viability ([4]; first compound 0.6325 µM) | relative viability ([4]; first compound 2 µM) | relative viability ([5]; first compound 0.02 µM) | relative viability ([5]; first compound 0.06325 µM) | relative viability ([5]; first compound 0.6325 µM) | relative viability ([5]; first compound 2 µM)
LC-2-ad | 0.593 | 0.636 | 0.464 | 0.323 | 0.813 | 0.843 | 0.909 | 0.781 | 0.663 | 0.72 | 0.753 | 0.665 | 0.482 | 0.516 | 0.345 | 0.264 | 1.05 | 1 | 0.633 | 0.56
LCLC-97TM1 | 0.435 | 0.415 | 0.398 | 0.194 | 0.219 | 0.171 | 0.177 | 0.174 | 0.578 | 0.779 | 0.625 | 0.734 | 0.251 | 0.211 | 0.0992 | 0.0885 | 0.807 | 0.998 | 0.374 | 0.184
LCLC-103H | 0.378 | 0.312 | 0.294 | 0.214 | 1.08 | 1.07 | 1 | 1.12 | 0.764 | 0.827 | 0.701 | 0.743 | 0.636 | 0.456 | 0.339 | 0.26 | 1.02 | 0.982 | 0.779 | 0.775
LOU-NH91 | 0.773 | 0.812 | 0.609 | 0.461 | 0.939 | 1.01 | 0.941 | 0.844 | 0.938 | 0.933 | 0.887 | 0.826 | 0.744 | 0.664 | 0.566 | 0.495 | 0.456 | 0.455 | 0.502 | 0.401
LU99A | 0.911 | 0.869 | 0.791 | 0.532 | 0.51 | 0.506 | 0.523 | 0.421 | 0.456 | 0.529 | 0.473 | 0.49 | 0.338 | 0.292 | 0.262 | 0.163 | 1.36 | 1.18 | 0.757 | 0.514
LXF-289 | 0.508 | 0.557 | 0.452 | 0.436 | 0.954 | 0.988 | 0.966 | 0.99 | 0.736 | 0.797 | 0.867 | 0.78 | 0.224 | 0.215 | 0.155 | 0.0896 | 1.04 | 1.05 | 0.993 | 0.819
NCI-H23 | 0.84 | 0.82 | 0.664 | 0.523 | 0.583 | 0.625 | 0.58 | 0.628 | 0.6 | 0.508 | 0.569 | 0.372 | 0.326 | 0.413 | 0.294 | 0.35 | 0.936 | 1.12 | 0.768 | 0.445
NCI-H322M | 0.861 | 0.773 | 0.566 | 0.418 | 0.912 | 0.949 | 0.869 | 0.942 | 0.844 | 0.936 | 0.944 | 0.977 | 0.494 | 0.49 | 0.4 | 0.282 | 1.11 | 1.2 | 0.873 | 0.907
NCI-H441 | 0.822 | 0.789 | 0.601 | 0.337 | 0.674 | 0.579 | 0.435 | 0.415 | 0.76 | 0.707 | 0.701 | 0.565 | 0.654 | 0.542 | 0.527 | 0.289 | 0.702 | 0.373 | 0.41 | 0.338
NCI-H460 | 0.549 | 0.534 | 0.266 | 0.0575 | 0.733 | 0.801 | 0.325 | 0.229 | 0.677 | 0.785 | 0.717 | 0.599 | 0.411 | 0.401 | 0.28 | 0.0523 | 1.1 | 1.36 | 0.57 | 0.111
NCI-H520 | 0.613 | 0.516 | 0.19 | 0.2 | 1.13 | 0.933 | 0.52 | 0.542 | 0.677 | 0.677 | 0.337 | 0.31 | 0.413 | 0.412 | 0.234 | 0.232 | 0.632 | 0.464 | 0.291 | 0.156
NCI-H596 | 0.697 | 0.697 | 0.375 | 0.305 | 1.14 | 1.11 | 0.846 | 0.734 | 0.64 | 0.754 | 0.604 | 0.462 | 0.822 | 0.901 | 0.591 | 0.356 | 1.02 | 1.09 | 0.487 | 0.435
NCI-H647 | 0.667 | 0.698 | 0.291 | 0.227 | 1.18 | 1.1 | 1.07 | 1.03 | 0.569 | 0.429 | 0.567 | 0.654 | 0.323 | 0.338 | 0.291 | 0.0558 | 1.19 | 1.07 | 0.965 | 0.513
NCI-H650 | 0.468 | 0.457 | 0.357 | 0.394 | 0.809 | 1.04 | 0.798 | 0.791 | 0.455 | 0.414 | 0.345 | 0.428 | 0.733 | 0.76 | 0.66 | 0.478 | 1.04 | 0.938 | 0.526 | 0.445
NCI-H661 | 0.302 | 0.282 | 0.269 | 0.216 | 0.583 | 0.725 | 0.665 | 0.541 | 0.759 | 0.737 | 0.767 | 0.681 | 0.345 | 0.354 | 0.4 | 0.396 | 0.771 | 0.738 | 0.616 | 0.258
